# Tested on: NL-RLuc virus
# Experiment: Inhibition of HIV replication (NL-RLuc luciferase reporter virus in MT-2 cells)
# Assay type: cell-based
# Conditions: Human immunodeficiency virus 1, MT2, 120 h, read-out: Activity
# Description: Inhibition of HIV replication: A recombinant NL-RLuc proviral clone was constructed in which a section of the nef gene form NL4-3 was replaced with the Renilla Luciferase gene. This virus is fully infectious and can undergo multiple cycles of replication in cell culture. In addition, the luciferous reporter provides a simple and easy method for quantitating the extent of virus growth and consequently, the antiviral activity of test compounds. The plasmid pNLRLuc contains the proviral NL-Rluc DNA cloned into pUC18 at the PvuII site. The NL-RLuc virus was prepared by transfection of 293T cells with the plasmid pNLRLuc. Transfections were performed using the LipofectAMINE PLUS kit form Invitrogen (Carlsbad, Calif.) according to the manufacturer and the virus generated was titered in MT-2 cells. For susceptibility analyses, the titrated virus was used to infect MT-2 cells in the presence of compound, and after 5 days of incubation, cells were processed and quantitated for virus growth by the amount of expressed luciferase. Assay media was RPMI 1640 supplemented with 10% heat inactivated fetal bovine serum (FBS), 100 units/ml penicillin G/100 units/ml streptomycin, 10 mM HEPES buffer pH 7.55 and 2 mM L-glutamine. The results form at least 2 experiments were used to calculate the EC50 values. Luciferase was quantitated using the Dual Luciferase kit form Promega (Madison, Wis.). Susceptibility of viruses to compounds was determined by incubation in the presence of serial dilutions of the compound. The 50% effective concentration (EC50) was calculated by using the exponential form of the median effect equation where (Fa)=1/[1+(ED50/drug conc.)^m](Johnson V A, Byington R T. Infectivity Assay. In Techniques in HIV Research. ed. Aldovini A, Walker B D. 71-76. New York: Stockton Press. 1990). Activity equal to A refers to a compound having an EC50≤100 nM, while B and C denote compounds having an EC50 between 100 nM and 1 uM (B) or >1 uM (C).
row,SMILES,EC50 [µM]
1,"Cc1nc(COCC2CCOCC2)c(-c2ccc(OCCc3ccc(F)cc3)cc2)c(N2CCC(C)(C)CC2)c1[C@H](OC(C)(C)C)C(=O)O [Example 19, (S)-2-(tert-Butoxy)-2-(4-(4,4-dimethylpiperidin-1-yl)-5-(4-(4-fluorophenethoxy)phenyl)-2-methyl-6-(((tetrahydro-2H-pyran-4-yl)methoxy)methyl)pyridin-3-yl)acetic acid]",< 0.1
2,"Cc1nc(COCc2nc(C)c([C@H](OC(C)(C)C)C(=O)O)c(N3CCC(C)(C)CC3)c2-c2ccc(OCCc3ccc(F)cc3)cc2)sc1C [Example 20, (S)-2-(tert-Butoxy)-2-(4-(4,4-dimethylpiperidin-1-yl)-6-(((4,5-dimethylthiazol-2-yl)methoxy)methyl)-5-(4-(4-fluorophenethoxy)phenyl)-2-methylpyridin-3-yl)acetic acid]",< 0.1
3,"Cc1nc(COCC2CN(C(=O)OC(C)(C)C)C2)c(-c2ccc(OCCc3ccc(F)cc3)cc2)c(N2CCC(C)(C)CC2)c1[C@H](OC(C)(C)C)C(=O)O [Example 21, (S)-2-(tert-Butoxy)-2-(6-(((1-(tert-butoxycarbonyl)azetidin-3-yl)methoxy)methyl)-4-(4,4-dimethylpiperidin-1-yl)-5-(4-(4-fluorophenethoxy)phenyl)-2-methylpyridin-3-yl)acetic acid]",< 0.1
4,"Cc1nc(COCC2CNC2)c(-c2ccc(OCCc3ccc(F)cc3)cc2)c(N2CCC(C)(C)CC2)c1[C@H](OC(C)(C)C)C(=O)O [Example 22, (S)-2-(6-((Azetidin-3-ylmethoxy)methyl)-4-(4,4-dimethylpiperidin-1-yl)-5-(4-(4-fluorophenethoxy)phenyl)-2-methylpyridin-3-yl)-2-(tert-butoxy)acetic acid]",< 0.1
5,"CCN(CC)CCOCc1nc(C)c([C@H](OC(C)(C)C)C(=O)O)c(N2CCC(C)(C)CC2)c1-c1ccc(OCCc2ccc(F)cc2)cc1 [Example 23, (S)-2-(tert-Butoxy)-2-(6-((2-(diethylamino)ethoxy)methyl)-4-(4,4-dimethylpiperidin-1-yl)-5-(4-(4-fluorophenethoxy)phenyl)-2-methylpyridin-3-yl)acetic acid]",< 0.1
6,"Cc1nc(COCCN2CCOCC2)c(-c2ccc(OCCc3ccc(F)cc3)cc2)c(N2CCC(C)(C)CC2)c1[C@H](OC(C)(C)C)C(=O)O [Example 24, (S)-2-(tert-Butoxy)-2-(4-(4,4-dimethylpiperidin-1-yl)-5-(4-(4-fluorophenethoxy)phenyl)-2-methyl-6-((2-morpholinoethoxy)methyl)pyridin-3-yl)acetic acid]",< 0.1
7,"Cc1cc(C)n(COCc2nc(C)c([C@H](OC(C)(C)C)C(=O)O)c(N3CCC(C)(C)CC3)c2-c2ccc(OCCc3ccc(F)cc3)cc2)n1 [Example 25, (S)-2-(tert-Butoxy)-2-(6-(((3,5-dimethyl-1H-pyrazol-1-yl)methoxy)methyl)-4-(4,4-dimethylpiperidin-1-yl)-5-(4-(4-fluorophenethoxy)phenyl)-2-methylpyridin-3-yl)acetic acid]",< 0.1
8,"Cc1nc(COCN2CCCC2=O)c(-c2ccc(OCCc3ccc(F)cc3)cc2)c(N2CCC(C)(C)CC2)c1[C@H](OC(C)(C)C)C(=O)O [Example 26, (S)-2-(tert-Butoxy)-2-(4-(4,4-dimethylpiperidin-1-yl)-5-(4-(4-fluorophenethoxy)phenyl)-2-methyl-6-(((2-oxopyrrolidin-1-yl)methoxy)methyl)pyridin-3-yl)acetic acid]",< 0.1
9,"Cc1nc(COCCN2CCCCC2)c(-c2ccc(OCCc3ccc(F)cc3)cc2)c(N2CCC(C)(C)CC2)c1[C@H](OC(C)(C)C)C(=O)O [Example 27, (S)-2-(tert-Butoxy)-2-(4-(4,4-dimethylpiperidin-1-yl)-5-(4-(4-fluorophenethoxy)phenyl)-2-methyl-6-((2-(piperidin-1-yl)ethoxy)methyl)pyridin-3-yl)acetic acid]",< 0.1
10,"Cc1nc(COCCN2CCS(=O)(=O)CC2)c(-c2ccc(OCCc3ccc(F)cc3)cc2)c(N2CCC(C)(C)CC2)c1[C@H](OC(C)(C)C)C(=O)O [Example 28, (S)-2-(tert-Butoxy)-2-(4-(4,4-dimethylpiperidin-1-yl)-6-((2-(1,1-dioxidothiomorpholino)ethoxy)methyl)-5-(4-(4-fluorophenethoxy)phenyl)-2-methylpyridin-3-yl)acetic acid]",< 0.1
11,"Cc1nc(COCC2CCC2)c(-c2ccc(OCCc3ccc(F)cc3)cc2)c(N2CCC(C)(C)CC2)c1[C@H](OC(C)(C)C)C(=O)O [Example 29, (S)-2-(tert-Butoxy)-2-(6-((cyclobutylmethoxy)methyl)-4-(4,4-dimethylpiperidin-1-yl)-5-(4-(4-fluorophenethoxy)phenyl)-2-methylpyridin-3-yl)acetic acid]",< 0.1
12,"Cc1nc(COCC2CC(F)(F)C2)c(-c2ccc(OCCc3ccc(F)cc3)cc2)c(N2CCC(C)(C)CC2)c1[C@H](OC(C)(C)C)C(=O)O [Example 30, (S)-2-(tert-Butoxy)-2-(6-(((3,3-difluorocyclobutyl)methoxy)methyl)-4-(4,4-dimethylpiperidin-1-yl)-5-(4-(4-fluorophenethoxy)phenyl)-2-methylpyridin-3-yl)acetic acid]",< 0.1
13,"Cc1ncn(Cc2nc(C)c([C@H](OC(C)(C)C)C(=O)O)c(N3CCC(C)(C)CC3)c2-c2ccc(OCCc3ccc(F)cc3)cc2)n1 [Example 31, (S)-2-(tert-Butoxy)-2-(4-(4,4-dimethylpiperidin-1-yl)-5-(4-(4-fluorophenethoxy)phenyl)-2-methyl-6-((3-methyl-1H-1,2,4-triazol-1-yl)methyl)pyridin-3-yl)acetic acid]",< 0.1
14,"Cc1nc(Cn2ncnc2C)c(-c2ccc(OCCc3ccc(F)cc3)cc2)c(N2CCC(C)(C)CC2)c1[C@H](OC(C)(C)C)C(=O)O [Example 32, (S)-2-(tert-butoxy)-2-(4-(4,4-dimethylpiperidin-1-yl)-5-(4-(4-fluorophenethoxy)phenyl)-2-methyl-6-((5-methyl-1H-1,2,4-triazol-1-yl)methyl)pyridin-3-yl)acetic acid]",< 0.1
15,"Cc1nc(Cn2cnnc2C)c(-c2ccc(OCCc3ccc(F)cc3)cc2)c(N2CCC(C)(C)CC2)c1[C@H](OC(C)(C)C)C(=O)O [Example 33, (S)-2-(tert-butoxy)-2-(4-(4,4-dimethylpiperidin-1-yl)-5-(4-(4-fluorophenethoxy)phenyl)-2-methyl-6-((3-methyl-4H-1,2,4-triazol-4-yl)methyl)pyridin-3-yl)acetic acid]",< 0.1
16,"CCOCCOCc1nc(C)c([C@H](OC(C)(C)C)C(=O)O)c(N2CCC(C)(C)CC2)c1-c1ccccc1 [Example 34, (S)-2-(tert-Butoxy)-2-(4-(4,4-dimethylpiperidin-1-yl)-6-((2-ethoxyethoxy)methyl)-2-methyl-5-phenylpyridin-3-yl)acetic acid]",< 0.1
17,"CCOCCOCc1cc(N2CCC(C)(C)CC2)c([C@H](OC(C)(C)C)C(=O)O)c(C)n1 [Example 35, (S)-2-(tert-butoxy)-2-(4-(4,4-dimethylpiperidin-1-yl)-6-((2-ethoxyethoxy)methyl)-2-methylpyridin-3-yl)acetic acid]",0.1 to 1
18,"CCOCCOCc1nc(C)c([C@H](OC(C)(C)C)C(=O)O)c(N2CCC(C)(C)CC2)c1C [Example 36, (S)-2-(tert-Butoxy)-2-(4-(4,4-dimethylpiperidin-1-yl)-6-((2-ethoxyethoxy)methyl)-2,5-dimethylpyridin-3-yl)acetic acid]",< 0.1

# Same assay, conditions: Human immunodeficiency virus 1, MT2, 120 h, read-out: EC50 μM
row,SMILES,EC50 [µM]
1,"Cc1nc(COCCN2CCOCC2)c(-c2ccc(OCCc3ccc(F)cc3)cc2)c(N2CCC(C)(C)CC2)c1[C@H](OC(C)(C)C)C(=O)O [Example 24, (S)-2-(tert-Butoxy)-2-(4-(4,4-dimethylpiperidin-1-yl)-5-(4-(4-fluorophenethoxy)phenyl)-2-methyl-6-((2-morpholinoethoxy)methyl)pyridin-3-yl)acetic acid]",0.001
2,"Cc1ncn(Cc2nc(C)c([C@H](OC(C)(C)C)C(=O)O)c(N3CCC(C)(C)CC3)c2-c2ccc(OCCc3ccc(F)cc3)cc2)n1 [Example 31, (S)-2-(tert-Butoxy)-2-(4-(4,4-dimethylpiperidin-1-yl)-5-(4-(4-fluorophenethoxy)phenyl)-2-methyl-6-((3-methyl-1H-1,2,4-triazol-1-yl)methyl)pyridin-3-yl)acetic acid]",0.009
3,"CCOCCOCc1cc(N2CCC(C)(C)CC2)c([C@H](OC(C)(C)C)C(=O)O)c(C)n1 [Example 35, (S)-2-(tert-butoxy)-2-(4-(4,4-dimethylpiperidin-1-yl)-6-((2-ethoxyethoxy)methyl)-2-methylpyridin-3-yl)acetic acid]",0.316
